Measured values as given in patent US4239779A, “Use of phenylglyoxylic acids and derivatives thereof in the treatment of ischemic heart disease” (Pfizer Inc., priority 1979, dated 1980).

Legend:
[1] = system: pyruvate dehydrogenase (PDH); test: Proportion of active pyruvate dehydrogenase (PDHa/PDHt) in hearts of fat-fed rats after dosing; type: in vivo; conditions: rat heart
Description: (2) Rats fed on a high fat diet as in test (1) (a), are treated either with placebo or with the compound of formula (I), by subcutaneous or intravenous injection or by oral administration, and at various times after treatment the rat hearts are removed and homogenized, under conditions which minimize changes in the proportion of the pyruvate dehydrogenase enzyme which is present in the active form, as described by Whitehouse and Randle (Biochem. J. 1973, 134, 651). The total amount of the enzyme present (PDHt) and the amount which is present in the active form (PDHa) are assessed by a method similar to that described by Taylor et al (J. Biol. Chem. 1973, 248, 73). The fat-feeding process is found to depress the ratio PDHa/PDHt from a normal value of about 0.7 to a value in the range from 0.05 to 0.2.

anesthetized beagle dogs = test: Myocardial blood flow and metabolism in fasted, closed-chest, anesthetized, electrically paced beagle dogs; type: in vivo, dog; conditions: 0.02 to 0.1 millimole/kg intravenously; in the presence and absence of isoprenaline
Description: The ability of compounds of formula (I) to reduce oxygen demand and affect the relative utilization of carbohydrate and lipid metabolites in the heart may be assessed by measuring the effect of the compounds on myocardial blood flow and metabolism in fasted, closed-chest, anesthetized beagle dogs, with cardiac catheterization to enable simultaneous sampling of coronary sinus and arterial blood to be carried out. Coronary sinus blood flow is measured by the hydrogen gas clearance technique described by Aukland et al (Circulation Res. 1964, 14, 164). The heart is paced electrically at 155 beats/min. and recordings of hemodynamic parameters (blood pressure, left ventricular pressure and the first derivative of the latter) are made continuously. Control measurements of coronary blood flow are made and samples of blood taken at 40 min. intervals, both in an untreated animal and in the same animal dosed with an infusion of isoprenaline ([…].), which both stimulates cardiac contraction and increases plasma free fatty acid levels. The compound of formula (I) is then administered intravenously and measurements are made and samples taken again, 40 minutes and 90 minutes later. The blood samples from the artery and coronary sinus are analyzed for oxyhemoglobin, pyruvate and free fatty acid (FFA) content, differences between those of the arterial and coronary sinus blood, when multiplied by coronary blood flow, being a measure of oxygen consumption, pyruvate uptake and FFA uptake by the myocardium respectively.

| Compound | PDHa/PDHt ratio at 1.5 hours ([1]; dose 0.6 mM/kg subcutaneous, placebo ratio 0.12) | PDHa/PDHt ratio at 1.5 hours ([1]; dose 1.2 mM/kg subcutaneous, placebo ratios 0.11-0.24) | myocardial blood flow (anesthetized beagle dogs) | myocardial oxygen consumption (anesthetized beagle dogs) | myocardial pyruvate uptake (anesthetized beagle dogs) | period of increased myocardial pyruvate uptake after dosing (anesthetized beagle dogs) |
| --- | --- | --- | --- | --- | --- | --- |
| CSc1ccc(C(=O)C(=O)O)cc1 [SCH3, H, OH, p-(methylthio)phenylglyoxylic acid] | 0.24 | 0.47 |  |  |  |  |
| O=C(O)C(=O)c1ccc(O)cc1 [OH, H, OH, p-hydroxyphenylglyoxylic acid] |  |  | increased | decreased | increases | at least 90 minutes |
